Source: patent US9783536B2, “Nitrogen-containing heterocyclic compound or salt thereof” (FUJIFILM Corporation, priority 2013, dated 2017)
Where two headings read alike, the source gives them in different places.

Assays:
[1] = molecular target: T1, human PI3Kα protein (Homo sapiens, UniProt P42336); assay: PI3Kα enzyme assay (ADP-Glo); type: biochemical; details: read-out: PI3Kα enzyme inhibitory activity
T1 construct: purchased Carna Biosciences, Inc; host or cells: baculovirus expression system
How it was run: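 Biotinylated human PI3Kα (baculovirus-expressed, 4.5 nmol/L) pre-incubated 15 min with compound in Tris-HCl pH 7.5, MgCl2, BSA; reaction 60 min at 25° C with 50 μmol/L PIP2 and 100 μmol/L ATP final. ADP quantified by ADP-Glo luminescence; IC50 calculated.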

[2] = molecular target: T2, GST fusion human ERK2 protein (Homo sapiens, UniProt P28482); assay: ERK2 enzyme assay (2); type: biochemical; details: read-out: ERK2 enzyme inhibitory activity (2)
T2 construct: purchased Carna Biosciences, Inc; host or cells: E. coli expression system
How it was run: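 IC50 values come from mobility-shift measurement of phosphorylated versus unphosphorylated 5-FAM peptide substrate after EDTA quench. Beforehand, compound and 1.25 nmol/L E. coli-expressed GST–human ERK2 stood 15 min at room temperature (pH 7.5), then 1 mmol/L ATP and 4.25 μmol/L substrate (final) were added for 120 min at 25 °C.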

T1 sequence (P42336 whole entry): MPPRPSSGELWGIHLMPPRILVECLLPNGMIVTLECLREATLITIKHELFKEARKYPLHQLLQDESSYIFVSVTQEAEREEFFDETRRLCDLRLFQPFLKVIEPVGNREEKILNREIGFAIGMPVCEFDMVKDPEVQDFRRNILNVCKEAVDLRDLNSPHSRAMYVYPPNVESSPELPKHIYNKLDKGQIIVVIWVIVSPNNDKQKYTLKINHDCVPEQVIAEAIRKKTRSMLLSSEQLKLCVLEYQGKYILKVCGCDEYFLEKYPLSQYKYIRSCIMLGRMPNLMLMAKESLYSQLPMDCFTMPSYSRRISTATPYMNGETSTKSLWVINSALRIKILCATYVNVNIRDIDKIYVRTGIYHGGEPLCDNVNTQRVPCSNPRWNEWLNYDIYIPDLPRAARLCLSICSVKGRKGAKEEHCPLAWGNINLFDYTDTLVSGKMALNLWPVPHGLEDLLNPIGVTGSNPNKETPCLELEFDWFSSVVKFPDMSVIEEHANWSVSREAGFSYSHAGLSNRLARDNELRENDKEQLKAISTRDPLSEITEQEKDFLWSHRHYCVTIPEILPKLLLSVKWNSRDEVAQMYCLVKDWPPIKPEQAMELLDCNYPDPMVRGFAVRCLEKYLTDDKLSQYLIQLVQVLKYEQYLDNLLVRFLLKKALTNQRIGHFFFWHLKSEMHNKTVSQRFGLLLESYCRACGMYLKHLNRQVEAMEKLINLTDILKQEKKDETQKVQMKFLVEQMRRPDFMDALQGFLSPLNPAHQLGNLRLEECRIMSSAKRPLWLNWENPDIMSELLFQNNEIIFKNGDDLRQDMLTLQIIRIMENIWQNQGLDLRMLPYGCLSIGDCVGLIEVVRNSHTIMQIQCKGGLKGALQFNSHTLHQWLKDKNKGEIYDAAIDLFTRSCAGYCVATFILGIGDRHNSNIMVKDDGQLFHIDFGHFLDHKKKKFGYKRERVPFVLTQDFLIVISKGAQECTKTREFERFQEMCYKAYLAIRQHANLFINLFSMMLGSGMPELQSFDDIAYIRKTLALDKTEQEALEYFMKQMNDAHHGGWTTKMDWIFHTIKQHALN
T1 sequence (P27986 whole entry partner): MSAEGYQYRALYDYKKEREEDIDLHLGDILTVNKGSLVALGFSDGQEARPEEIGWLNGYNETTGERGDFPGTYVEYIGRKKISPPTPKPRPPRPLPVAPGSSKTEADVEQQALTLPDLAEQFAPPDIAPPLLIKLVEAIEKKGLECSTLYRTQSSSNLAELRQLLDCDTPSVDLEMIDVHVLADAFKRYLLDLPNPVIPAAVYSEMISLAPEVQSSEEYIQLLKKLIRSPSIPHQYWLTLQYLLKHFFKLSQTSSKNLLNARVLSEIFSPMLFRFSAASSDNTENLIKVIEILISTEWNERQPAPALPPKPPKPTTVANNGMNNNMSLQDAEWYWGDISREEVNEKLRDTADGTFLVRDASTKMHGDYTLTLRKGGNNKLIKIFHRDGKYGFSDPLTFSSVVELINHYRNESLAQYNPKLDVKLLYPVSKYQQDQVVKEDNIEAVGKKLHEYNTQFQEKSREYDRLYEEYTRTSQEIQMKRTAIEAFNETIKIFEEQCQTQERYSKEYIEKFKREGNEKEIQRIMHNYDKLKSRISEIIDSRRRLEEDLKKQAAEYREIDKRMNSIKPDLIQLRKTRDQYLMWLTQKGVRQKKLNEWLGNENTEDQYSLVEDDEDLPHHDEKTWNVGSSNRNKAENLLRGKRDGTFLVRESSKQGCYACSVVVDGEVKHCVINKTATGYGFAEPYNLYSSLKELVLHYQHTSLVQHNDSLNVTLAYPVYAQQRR
T2 sequence (P28482 whole entry, the tested form may be a part): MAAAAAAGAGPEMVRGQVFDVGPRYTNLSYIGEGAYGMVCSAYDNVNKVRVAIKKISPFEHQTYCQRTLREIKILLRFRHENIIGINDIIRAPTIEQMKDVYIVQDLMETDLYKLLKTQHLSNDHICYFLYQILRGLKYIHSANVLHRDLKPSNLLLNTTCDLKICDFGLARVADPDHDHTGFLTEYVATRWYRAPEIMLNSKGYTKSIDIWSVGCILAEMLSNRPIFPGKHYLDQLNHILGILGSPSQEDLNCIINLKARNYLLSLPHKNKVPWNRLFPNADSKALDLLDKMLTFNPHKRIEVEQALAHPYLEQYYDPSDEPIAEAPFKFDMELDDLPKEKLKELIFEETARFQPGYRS

| SMILES | IC50 [1] [nM] | IC50 ([2]; ERK2 enzyme assay (2)) [nM] | IC50 [2] [nM] |
| --- | --- | --- | --- |
| COc1cnnc(Nc2ccc3ncc(-c4cnn(CCCN5CCOCC5)c4)cc3n2)c1 [Example 0496, N-(5-methoxypyridazin-3-yl)-7-(1-(3-morpholinopropyl)-1H-pyrazol-4-yl)-1,5-naphthyridine-2-amine] | < 1000 | < 1000 | – |
| CC(C)c1cnnc(Nc2ccc3ncc(-c4cn(C)nc4C(F)(F)F)cc3n2)c1 [Example 0634] | < 1000 | < 1000 | – |
| CC(C)c1cnnc(Nc2ccc3ncc(-c4cnn(CCN5CC6(COC6)C5)c4)cc3n2)c1 [Example 0619, 7-(1-(2-(2-Oxa-6-azaspiro[3.3]heptan-6-yl)ethyl)-1H-pyrazol-4-yl)-N-(5-isopropylpyridazin-3-yl)-1,5-naphthyridine-2-amine] | < 1000 | < 1000 | – |
| Cc1cnnc(Nc2ccc3ncc(-c4cn(C)nc4-c4cccnc4)cc3n2)c1 [Example 0527] | < 1000 | 1000 to 10000 | – |
| Cn1cc(-c2cnc3ccc(Nc4cc(C(C)(C)CO[Si](C)(C)C(C)(C)C)cnn4)nc3c2)cn1 [Example 0559, N-(5-(1-((tert-butyldimethylsilyl)oxy)-2-methylpropan-2-yl)pyridazin-3-yl)-7-(1-methyl-1H-pyrazol-4-yl)-1,5-naphthyridine-2-amine] | 10000 to 50000 | < 1000 | – |
| CC(C)c1cnnc(Nc2ccc3ncc(-c4cn(C)nc4-c4ccc(OCCN(C)C)cc4)cc3n2)c1 [Example 0774] | < 1000 | < 1000 | – |
| CC(C)c1cnnc(Nc2ccc3ncc(C(=O)NCCCCO)cc3n2)c1 [Example 0664] | 1000 to 10000 | 1000 to 10000 | – |
| CC(C)c1cnnc(Nc2ccc3ncc(-c4cnn(CCC5CCOCC5)c4)cc3n2)c1 [Example 0483] | < 1000 | < 1000 | – |
| CC(C)c1cnnc(Nc2ccc3ncc(-c4cc(N)ncn4)cc3n2)c1 [Example 0765] | < 1000 | < 1000 | – |
| CC(C)c1cnnc(Nc2ccc3ncc(-c4cnn(CCCN5CCCCC5=O)c4)cc3n2)c1 [Example 0415, 1-(3-(4-(6-((5-Isopropylpyridazin-3-yl)amino)-1,5-naphthyridin-3-yl)-1H-pyrazol-1-yl)propyl)piperidin-2-one] | < 1000 | < 1000 | – |
| COc1ccc(-c2nn(C)cc2-c2cnc3ccc(Nc4cc(C)cnn4)nc3c2)cn1 [Example 0458] | < 1000 | 10000 to 50000 | – |
| CC(C)c1cnnc(Nc2ccc3ncc(-c4cnn(C(C)c5ccccn5)c4)cc3n2)c1 (stereo not drawn) [Example 0414] | < 1000 | < 1000 | – |
| C=C(C)c1cnnc(Nc2ccc3ncc(-c4cnn(C)c4)cc3n2)c1 [Example 0787, 7-(1-Methyl-1H-pyrazol-4-yl)-N-(5-(prop-1-en-2-yl)pyridazin-3-yl)-1,5-naphthyridine-2-amine] | < 1000 | < 1000 | – |
| CC(C)c1cnnc(Nc2ccc3ncc(-c4cn(C)nc4COc4cccc(OCCN(C)C)c4)cc3n2)c1 [Example 0809, 7-(3-((3-(2-(dimethylamino)ethoxy)phenoxy)methyl)-1-methyl-1H-pyrazol-4-yl)-N-(5-isopropylpyridazin-3-yl)-1,5-naphthyridine-2-amine] | < 1000 | < 1000 | – |
| CC(C)c1cnnc(Nc2ccc3ncc(-c4cnn(CC5CC5)c4)cc3n2)c1 [Example 0581] | < 1000 | < 1000 | – |
| CC(C)c1cnnc(Nc2ccc3ncc(-c4cnn(CCCN5CC(F)(F)C5)c4)cc3n2)c1 [Example 0692] | < 1000 | < 1000 | – |
| CC(C)c1cnnc(Nc2ccc3ncc(-c4cn(C)nc4-c4cnn(C)c4)cc3n2)c1 [Example 0582] | < 1000 | < 1000 | – |
| CC(C)c1cnnc(Nc2ccc3ncc(-c4cnn(CC5CN(C)CCO5)c4)cc3n2)c1 (stereo not drawn) [Example 0728, N-(5-isopropylpyridazin-3-yl)-7-(1-((4-methylmorpholin-2-yl)methyl)-1H-pyrazol-4-yl)-1,5-naphthyridine-2-amine] | < 1000 | < 1000 | – |
| CC(C)c1cnnc(Nc2ccc3ncc(-c4cnn(C(C)C)c4)cc3n2)c1 [Example 0442] | < 1000 | < 1000 | – |
| CC(C)c1cnnc(Nc2ccc3ncc(NC(=O)COCc4ccccc4)cc3n2)c1 [Example 0654, 2-(benzyloxy)-N-(6-((5-isopropylpyridazin-3-yl)amino)-1,5-naphthyridin-3-yl)acetamide] | < 1000 | 1000 to 10000 | – |
| CC(C)c1cnnc(Nc2ccc3ncc(N)cc3n2)c1 [Example 0623, N^2-(5-isopropylpyridazin-3-yl)-1,5-naphthyridine-2,7-diamine] | 1000 to 10000 | 1000 to 10000 | – |

The next lines start with the values.

| IC50 [1] [nM] | IC50 ([2]; ERK2 enzyme assay (2)) [nM] | IC50 [2] [nM] | SMILES |
| --- | --- | --- | --- |
| < 1000 | – | < 1000 | CCOC(C)c1cnnc(Nc2ccc3ncc(-c4cnn(C)c4)cc3n2)c1 (stereo not drawn) [Example 0920] |
| < 1000 | < 1000 | – | CC(C)c1cnnc(Nc2ccc3ncc(-c4cn(C)nc4Cc4ccccc4)cc3n2)c1 [Example 0828] |
| < 1000 | < 1000 | – | CC(=O)N1CCN(c2cnc3ccc(Nc4cc(C(C)C)cnn4)nc3c2)CC1 [Example 0872] |
| < 1000 | < 1000 | – | CC(C)c1cnnc(Nc2ccc3ncc(-c4cn(C)nc4NCc4ccccn4)cc3n2)c1 [Example 0834] |
| < 1000 | – | < 1000 | CCN(CC)c1nn(C)cc1-c1cnc2ccc(Nc3cc(C(C)C)cnn3)nc2c1 [Example 0944] |
| 1000 to 10000 | < 1000 | – | CC(C)c1cnnc(Nc2ccc3ncc(N4CCCC4)cc3n2)c1 [Example 0846, N-(5-isopropylpyridazin-3-yl)-7-(pyrrolidin-1-yl)-1,5-naphthyridine-2-amine] |
| 1000 to 10000 | 1000 to 10000 | – | CC(C)c1cnnc(Nc2ccc3ncc(NC4(C)CCC4)cc3n2)c1 [Example 0888] |
| < 1000 | 1000 to 10000 | – | CC(C)c1cnnc(Nc2ccc3ncc(N4CCC(C(N)=O)C4)cc3n2)c1 (stereo not drawn) [Example 0898] |
| 1000 to 10000 | < 1000 | – | CC(C)c1cnnc(Nc2ccc3ncc(N4CCCCC4)cc3n2)c1 [Example 0845, N-(5-isopropylpyridazin-3-yl)-7-(piperidin-1-yl)-1,5-naphthyridine-2-amine] |
| 1000 to 10000 | < 1000 | – | CC(C)c1cnnc(Nc2ccc3ncc(N4CCN(CC(F)(F)F)CC4)cc3n2)c1 [Example 0875] |
| < 1000 | – | < 1000 | CC(C)c1cnnc(Nc2ccc3ncc(-c4cn(C)nc4N4CCCCC4)cc3n2)c1 [Example 0936] |
| < 1000 | – | < 1000 | CC(C)c1cnnc(Nc2ccc3ncc(-c4cn(C)nc4NC4CCC4)cc3n2)c1 [Example 0939] |
| 1000 to 10000 | – | < 1000 | CC(C)c1cnnc(Nc2ccc3ncc(N4C5CCC4COC5)cc3n2)c1 [Example 0901] |
| < 1000 | – | 1000 to 10000 | CC(C)c1cnnc(Nc2ccc3ncc(-c4cn(C)nc4N4CCC(=O)N(C)CC4)cc3n2)c1 [Example 0935, 1-(4-(6-((5-isopropylpyridazin-3-yl)amino)-1,5-naphthyridin-3-yl)-1-methyl-1H-pyrazol-3-yl)-4-methyl-1,4-diazepan-5-one] |
| < 1000 | – | < 1000 | Cn1cc(-c2cnc3ccc(Nc4cc(C5CCCCC5)cnn4)nc3c2)cn1 [Example 0927, N-(5-cyclohexylpyridazin-3-yl)-7-(1-methyl-1H-pyrazol-4-yl)-1,5-naphthyridine-2-amine] |
